One series concerns serum endotoxin. The source says: FIG. 1 is a graph depicting serum endotoxin levels (EU/ml) over time following treatment with xylose.
Series [1] relates to Tregs in the large intestine. The conditions noted are these: mouse, in vivo; cited from earlier work.
The subject of series [2] is healthy, adult volunteers. Nature of the series: Normal human volunteer study of D-xylose: immunology (CRP, cytokines, T-cell markers) and gut microbiome. The series is classed as in vivo. The note with it: for effect on gut microbiome (alpha diversity, community composition): stool 16S, normal individuals. The source says:
Blood was collected at pre-specified pre- and post-ingestion time points to evaluate C-reactive protein (CRP), serum cytokines (tumor necrosis factor alpha [TNF-α], interleukin [IL]-2, IL-6, interferon gamma [IFN-γ], and IL-10), and T-cell markers CD3, CD4, CD8, CD25, and FOXP3. Plasma was also stored and may be tested for biomarkers and/or metabolic markers for up to 7 years.
A total of 7 stool samples were expected to be collected for each subject. Evaluation of changes in the gut microbiome were evaluated in stool samples through taxonomic classification, relative and statistical differential abundance analyses by cohort and time point, an alpha diversity analysis calculated using the Shannon diversity index by cohort and time point, a beta diversity analysis using Bray-Curtis dissimilarity and Unifrac distance by subject and time point, and a principal coordinates analysis using the beta diversity data.
Summary statistics (n, mean, standard deviation, median, minimum, and maximum) were presented for serum concentrations of CRP, flow cytometry T-cell markers (CD3, CD4, CD8, CD25, and FOXP3), and cytokines (TNF-α, IL-2, IL-6, IFN-γ, and IL-10) as per their nominal time points.
A total of 344 stool samples were collected in OMNIgene•GUT collection kits and shipped to the GenoFIND laboratory for DNA extraction and V3-V4 16S amplicon sequencing. […] Numerous taxa were identified as differentially abundant, but this finding may be attributable to the relatively small sample sizes of each cohort. […] The impact of xylose on the microbiome under disease conditions remains to be determined.

Series [3] deals with Blautia; Lactobacillus johnsonii. Nature of the series: Sugar fermentation by Blautia versus Lactobacillus johnsonii (pH and optical density, media lacking glucose). The series is classed as cell-based.
A further series deals with mice with GVHD. The note with it: mouse, in vivo.
The test system of the next series is tumors. The conditions noted are these: oral administration; cited from earlier work.
Series [4] deals with anaerobic commensal bacteria. Nature of the series: Carbon source utilization by commensal bacteria (Biolog PM01/PM02A plates, OD 750 nm). The series is classed as cell-based.
In series [5] the test system is healthy, adult volunteers. The note with it: human, in vivo, 28 days. How it is done: D-xylose is a carbon source generally preferred by anaerobic bacteria. […] A parallel, double-blind, 5 cohort escalation food safety study was conducted to examine D-xylose in normal human volunteers. The study was a double-blind, single-center, parallel group study designed to evaluate the tolerability and potential microbiome changes induced by ingestion of D-xylose at 5 different amounts in healthy, adult volunteers enrolled at 1 study center in the United States (US).
Subjects were screened for eligibility within 21 days prior to the first planned ingestion of study sweetener on Day 1 (Baseline). […]
Subjects returned to the study center weekly on Days 8, 15, 22, and 28 for ingestion, tolerability, and compliance evaluations. Safety was evaluated on a continual basis through adverse events (AE) monitoring, clinical laboratory measurements, vital sign monitoring, physical examinations, electrocardiograms (ECGs), telephone follow-up, and electronic subject ingestion diaries. Stool was collected pre-ingestion and at pre-specified time points, and post-ingestion samples were evaluated for changes in the gut microbiome compared with Baseline for all subjects. […]
Safety was evaluated on a continual basis through AE monitoring, clinical laboratory measurements, vital sign monitoring, physical examinations, ECGs, telephone follow-up, and electronic subject ingestion diaries. […]

Series [6] can be described thus: Normal human volunteer study of D-xylose: pharmacokinetics (serum and urine D-xylose). The series is classed as in vivo. The conditions noted are these: Day 15; 15 mg TID cohort; variability high. How it is done: Blood and urine were collected at pre-specified pre- and post-ingestion time points to measure D-xylose levels and to characterize the systemic absorption profiles of D-xylose. Serum D-xylose concentrations were summarized by cohort using nominal sample times according to actual amount received using summary statistics (n, coefficient of variation [CV], mean, standard deviation [SD], median, minimum, and maximum). Evidence for the occurrence of steady-state was assessed graphically by comparing the time course of either trough or 2-hour post-ingestion serum concentrations of D-xylose as different levels of D-xylose. Accumulation was assessed by comparing the 2-hour post-first-ingestion serum levels with those observed at Week 2 (Day 15) and Week 4 (Day 28). […] Urine PK parameters for D-xylose levels included Ae(0-t) (cumulative amount of sweetener recovered in urine) and percent sweetener amount excreted over a 5-hour period.

In the next series the test system is C57Bl/6 female mice. The conditions noted are these: mouse, in vivo. An excerpt:
The trillions of organisms forming the microbiome function as an organ system interconnected throughout the body. The possibility that modification of the microbiome in a given physical location may influence the microbiome at other sites in the body (distal augmentation) was investigated. Seven week old C57Bl/6 female mice were acclimatized for 7 days prior to the start of the study by daily handling and shuffling between cages. All mice were housed at three mice per cage in individually vented cages (Thoren, Hazleton, Pa.). At day 0, baseline fresh fecal pellets, and vaginal lavages with 100 μL of sterile double-distilled water were collected and immediately frozen at −80° C. for microbiome analysis. […] Water alone is not expected to influence the microbiome and acted as a negative control. […] The impact of oral vancomycin is therefore expected to be limited to the gastrointestinal tract such that microbiome changes elsewhere in the body (e.g. vagina) would be attributable to distal augmentation. At day 6, fresh fecal pellets and vaginal lavages with 100 μL of sterile double-distilled water were collected and immediately stored at −80° C. for microbiome analysis.
Isolation and sequencing of microbial DNA from the stool and vaginal samples was performed by DNA Genotek (Ottawa, ON, Canada). The V3-V4 region of the 16S ribosomal subunit was amplified with custom PCR primers and sequenced on an Illumina MiSeq to a minimum acceptable read depth of 25,000 sequences per sample. […] These OTU's were then assigned a curated taxonomic label based on the seven level SILVA taxonomy.

Regarding `CCN1CCN(c2cc3c(cc2F)c(=O)c(C(=O)O)cn3C2CC2)CC1` [enrofloxacin, reference compound], the “serum endotoxin levels after antibiotic treatment, recovery” value in the series on serum endotoxin (mice, by day 14) was “return to baseline”. Besides, in the series with serum endotoxin (mice, measured 2 days after a 5 day course, at day 0), the “serum endotoxin levels after antibiotic treatment” value is listed as “leads to an increase in serum endotoxin levels”.

In the case of `CCC(=O)O` [propionate], the “numbers of Tregs in the large intestine” value in series [1] was “restored normal numbers of Tregs in the large intestine”.

In the case of `O=C[C@H](O)[C@@H](O)[C@H](O)CO` [xylose], in the series on serum endotoxin (mouse, in vivo), the “basal levels of serum endotoxin” value is recorded as “reduces basal levels of serum endotoxin”, the “effect on the endotoxin increase caused by cipro” value is “counteracts the endotoxin increase” and the “effect on the endotoxin increase caused by enro” value is given as “not”. In addition, the “effect on gut microbiome (alpha diversity, community composition)” value in [2] is “exerts subtle changes in the gut microbiome”. Moreover, the “substrate fermentable by Blautia but not lactobacillus” value in [3] was “specifically augments Blautia but not lactobacillus”. In addition, in the series on mice with GVHD, the “Blautia in the intestinal flora” value is “expansion of Blautia in the intestinal flora” and the “survival of mice with GVHD” value is “improved survival of mice with GVHD”.

On to Bifidobacterium, for which the “responsiveness to checkpoint inhibitor therapy in cancer” value in the series on tumors was “increases the responsiveness to checkpoint inhibitor therapy in cancer”.

On to `C[C@H](O)[C@H](O)[C@@H](O)[C@@H](O)C=O` [rhamnose], for which, in series [3], the “substrate fermentable by Blautia but not lactobacillus” value is recorded as “specifically augments Blautia but not lactobacillus”.

As for `O=C[C@H](O)[C@@H](O)[C@H](O)CO` [D-xylose], in [4], the “use as carbon source by bacterial strains” value is on record as “used as a carbon source by several bacterial strains”. Besides, the “subjects with at least 1 AE considered related to study sweetener” value in series [5] is recorded as 25.0%. The accumulation ratio entry in [6] is on record as “approximately 1.9 fold”. The “serum interferon gamma over time” value in series [2] (2 g and 15 g D-xylose cohorts) was “trend for reduced levels of serum interferon gamma over time”. For the same compound, the “total T-cells or T-cell subsets over time” value in series [2] (any D-xylose ingestion amount) is “No consistent or clinically meaningful changes over time”. Besides, the “effect on gut microbiome (alpha diversity, community composition)” value in [2] was “no apparent significant impact on the intra-sample alpha diversity”.

For `CN[C@H](CC(C)C)C(=O)N[C@H]1C(=O)N[C@@H](CC(N)=O)C(=O)N[C@H]2C(=O)N[C@H]3C(=O)N[C@H](C(=O)N[C@H](C(=O)O)c4cc(O)cc(O)c4-c4cc3ccc4O)[C@H](O)c3ccc(c(Cl)c3)Oc3cc2cc(c3O[C@@H]2O[C@H](CO)[C@@H](O)[C@H](O)[C@H]2O[C@H]2C[C@](C)(N)[C@H](O)[C@H](C)O2)Oc2ccc(cc2Cl)[C@H]1O` [Vancomycin, vancomycin], in the series on C57Bl/6 female mice, the “impact on the microbiome of the gut (fecal samples, PCA at family level)” value is recorded as “strong impact on the microbiome of the gut” and the “median abundance of bacterial species detected in vaginal samples at day 6 that were not present at day 0” value was “approximately 0.00002%”. The “day 0 to day 6 pattern in vaginal samples (PCA)” value in the series with C57Bl/6 female mice (po) was “overall difference between the PBS and oral vancomycin groups”.

Take Bacteroides: in the series on tumors, the “responsiveness to checkpoint inhibitor therapy in cancer” value is on record as “increases the responsiveness to checkpoint inhibitor therapy in cancer”.

As to `CC(=O)O` [acetate], the “numbers of Tregs in the large intestine” value in series [1] is reported as “restored normal numbers of Tregs in the large intestine”.

Values taken from patent US11672834B2, “Probiotic and prebiotic compositions, and methods of use thereof for modulation of the microbiome” (Evelo Biosciences, Inc., priority 2014, dated 2023).
